Test system: Rattus norvegicus
Experiment: Inhibition of histamine-induced gastric acid secretion in rat in perfused stomach preparation at 2.5 mg/kg, iv after 15 mins
Assay type: functional
Conditions: 0.25 h

Row | Compound | inhibition in vivo at 2.5 mg/kg [%]
1 | CN1CCCCC1COc1ccccc1CCC1CCCCC1 (centres undefined) | 64
2 | c1ccc(OCCN2CCCCC2)c(CCC2CCCCC2)c1 | 50

Test system: Rattus norvegicus
Experiment: Inhibition of histamine-induced gastric acid secretion in po dosed rat in ligated stomach preparation administered 1 hr prior to the ligation of the pylorus
Assay type: functional
Conditions: not given

Row | Compound | ED50 [mg/kg]
3 | C(=C\C12CC3CC(CC(C3)C1)C2)/c1ccccc1OCCN1CCCC1.Cl | 1.5
4 | CN/C(=N\CCSCc1nc[nH]c1C)NC#N [CIMETIDINE] | 21.5

Test system: Rattus norvegicus
Experiment: Inhibition of histamine-induced gastric acid secretion in iv dosed rat in perfused stomach preparation measured after 15 mins
Assay type: functional
Conditions: 0.25 h

Row | Compound | ED50 [mg/kg]
5 | C(=C\C12CC3CC(CC(C3)C1)C2)/c1ccccc1OCCN1CCCC1.Cl | 0.018
6 | CN/C(=N\CCSCc1nc[nH]c1C)NC#N [CIMETIDINE] | 0.3

Test system: Rattus norvegicus
Experiment: Inhibition of histamine-induced gastric acid secretion in rat in perfused stomach preparation at 1.25 mg/kg, iv after 15 mins
Assay type: functional
Conditions: 0.25 h

Row | Compound | inhibition in vivo at 1.25 mg/kg [%]
7 | CCN(CC)CCOc1ccccc1/C=C/C1CCCCC1 | 82
8 | C(=C\C1CCCCC1)/c1ccccc1OCCN1CCCC1 | 90
9 | c1ccc(OCCN2CCCC2)c(CCC23CC4CC(CC(C4)C2)C3)c1 | 100

Test system: Rattus norvegicus
Experiment: Inhibition of histamine-induced gastric acid secretion in rat in perfused stomach preparation at 5 mg/kg, iv after 15 mins
Assay type: functional
Conditions: 0.25 h

Row | Compound | inhibition in vivo at 5 mg/kg [%]
10 | c1ccc(N2CCN(CCOc3ccccc3CCC3CCCCC3)CC2)cc1 | 0
11 | CCCCC/C=C/c1ccccc1OCCN1CCCC1 | 71
12 | CCN(CC)CCOc1ccccc1CCC1CCCCC1 | 74
13 | c1ccc(OCCN2CCCC2)c(CCC2CCCCC2)c1 | 95
14 | CCCCCCc1ccccc1OCCN(CC)CC | 48
15 | CCN(CC)CCCOc1ccccc1CCC1CCCCC1 | 66
16 | CN(C)CCOc1ccccc1CCC1CCCCC1 | 29
17 | CCN(CC)CCOc1ccccc1CCCC(C)(C)C | 50
18 | CCCCCCCCCc1ccccc1OCCN(CC)CC | 25
19 | CCN(CC)CCOc1ccc(OC)cc1CCC1CCCCC1 | 78
20 | CC(C)N(CCOc1ccccc1CCC1CCCCC1)C(C)C | 32
21 | CCN(CC)CCOc1ccc(C(C)=O)cc1CCC1CCCCC1 | 36
22 | CN1CCN(CCOc2ccccc2CCC2CCCCC2)CC1 | 0
23 | CCN1CCCC(COc2ccccc2CCC2CCCCC2)C1 (centres undefined) | 57
24 | CN1CCCCC1COc1ccccc1CCC1CCCCC1 (centres undefined) | 100
25 | CC(C)CN1CCN(CCOc2ccccc2CCC2CCCCC2)CC1 | 51
26 | CCCCCC/C=C/c1ccccc1OCCN1CCCC1 | 50
27 | CCCN(CCC)CCOc1ccccc1CCC1CCCCC1 | 62
28 | CCCCCCCc1cc(C)ccc1OCCN(CC)CC | 61
29 | CCN(CC)CCOc1ccc(F)cc1CCC1CCCCC1 | 95
30 | CN(C)CCCOc1ccccc1CCC1CCCCC1 | 42
31 | CCN(CC)CCOc1ccc(Cl)cc1CCC1CCCCC1 | 75
32 | c1ccc(OCCN2CCOCC2)c(CCC2CCCCC2)c1 | 10
33 | CCCCCCCc1ccccc1OCCN(CC)CC | 82

Test system: Rattus norvegicus
Experiment: Inhibition of histamine-induced gastric acid secretion in rat in perfused stomach preparation at 0.078 mg/kg, iv after 15 mins
Assay type: functional
Conditions: 0.25 h

Row | Compound | inhibition in vivo at 0.078 mg/kg [%]
34 | CN(C)CCOc1ccccc1/C=C/C12CC3CC(CC(C3)C1)C2 (trans isomer) | 52
35 | C(=C\C12CC3CC(CC(C3)C1)C2)/c1ccccc1OCCN1CCCC1.Cl | 97
36 | c1ccc(OCCN2CCCC2)c(CCC23CC4CC(CC(C4)C2)C3)c1 | 83
37 | C(=C/C12CC3CC(CC(C3)C1)C2)/c1ccccc1OCCN1CCCC1 | 65

Test system: Rattus norvegicus
Experiment: Toxicity in rat at 5 mg/kg, iv
Assay type: organism-based
Set-up: dose 5 mg/kg, route intravenous
Conditions: in vivo

Row | Compound | Activity
38 | CCCCCCCc1ccccc1OCCCNC(C)C.O=C(O)C(=O)O | Toxic
39 | CCCCCCCc1ccccc1OCCNCC.O=C(O)C(=O)O | Toxic

Reference: ChEMBL document CHEMBL3272164, “Compounds with gastric antisecretory activity. 1. Phenoxyalkylamines” (J Med Chem, 1977)
